Reference: patent US12599596B2, “Anti-tumor pharmaceutical composition based on immune checkpoint blockade and use thereof” (Shanghai Hui Tian Jin Ze Biotech Co., Ltd., priority 2023, dated 2026)

What was measured:
[1] = test system: PD-L1 on RKO colon cancer cell membranes; experiment: PD-L1 on cell membrane by immunofluorescence; format: cell-based; settings: 20 μM CBD, different time
Protocol: • (1) Different types of tumor cells (RKO, HCT116 and HT29 colon cancer cells, and A549, H1975 and H460 lung cancer cells) in the logarithmic growth phase were respectively inoculated on a 6-well plate at an inoculum density of 2.5×10^5 cells/well with 2 mL/well and then placed in a cell incubator overnight incubation. The culture mixture was removed, CBD at different concentrations (0 μM, 5 μM, 10 μM, and 20 μM) was added for treatment for 24 h, the supernatant was removed, and the cells were washed with PBS 2 times, digested with pancreatin, centrifuged at 300×g and 4° C. for 5 min, and collected. The cells were washed with precooled PBS 2 times, centrifuged at 300×g and 4° C. for 5 min, and collected. The cells were washed 2 times with precooled PBS, 100 μL of PBS was added to resuspend the cells, an anti-PD-L1-Alexa Fluor 647 antibody was added, the cells were incubated at room temperature for 30 min and centrifuged at 300×g and 4° C. for 5 min, 300 μL of PBS was added to resuspend the cells in a flow tube, and an Alexa Fluor 647 signal was detected from the sample using a flow cytometer (excitation/emission wavelength of 647 nm/666 nm). • (2) The colorectal cancer cells (RKO) in the logarithmic growth phase were inoculated into a 6-well plate at a density of 2.5×10^5 cells/well, with a 2 mL volume of the suspension in each well. […]

RKO cells = experiment: In vitro killing of tumor cells by T cells (NK-92) with CBD, crystal violet; format: cell-based; settings: CBD 5, 10, 20 μM 12 h, then NK-92 cells 1:500, 24 h; vs control
Protocol: RKO cells in the logarithmic growth phase were inoculated into a 12-well plate at a density of 5×10^4 cells/mL and placed in a 5% CO2 incubator for growth adhering to a wall overnight. The supernatant was removed, CBD at different concentrations (0 μM, 5 μM, 10 μM, and 20 μM) was added, and the cells were coincubated for 12 h. NK-92 cells (T cells) were added at 1:500, the cells were cultured for 24 h, and a control group without the NK-92 cells was set at the same time. The supernatant was removed, PBS was used for washing 2 times, and 4% paraformaldehyde was added to fix the cells. Then, PBS was used for washing 2 times, crystal violet was added for dyeing for 30 min, and finally, redundant crystal violet was washed away with PBS, and photographing was performed to collect the data.

[2] = test system: PD-L1 on A549 lung cancer cell membrane; experiment: PD-L1 on cell membrane by flow cytometry; format: cell-based; settings: concentration-dependent 5, 10, 20 μM, 24 h
Protocol: (§1) • (1) Different types of tumor cells (RKO, HCT116 and HT29 colon cancer cells, and A549, H1975 and H460 lung cancer cells) in the logarithmic growth phase were respectively inoculated on a 6-well plate at an inoculum density of 2.5×10^5 cells/well with 2 mL/well and then placed in a cell incubator overnight incubation. The culture mixture was removed, CBD at different concentrations (0 μM, 5 μM, 10 μM, and 20 μM) was added for treatment for 24 h, the supernatant was removed, and the cells were washed with PBS 2 times, digested with pancreatin, centrifuged at 300×g and 4° C. for 5 min, and collected. The cells were washed with precooled PBS 2 times, centrifuged at 300×g and 4° C. for 5 min, and collected. The cells were washed 2 times with precooled PBS, 100 μL of PBS was added to resuspend the cells, an anti-PD-L1-Alexa Fluor 647 antibody was added, the cells were incubated at room temperature for 30 min and centrifuged at 300×g and 4° C. for 5 min, 300 μL of PBS was added to resuspend the cells in a flow tube, and an Alexa Fluor 647 signal was detected from the sample using a flow cytometer (excitation/emission wavelength of 647 nm/666 nm). • (2) The colorectal cancer cells (RKO) in the logarithmic growth phase were inoculated into a 6-well plate at a density of 2.5×10^5 cells/well, with a 2 mL volume of the suspension in each well. The plate was placed into a cell incubator for incubation overnight, the culture mixture was removed, 20 μM CBD was added for 12 h, the supernatant was removed, PBS was used for washing 2 times, paraformaldehyde was added for fixing for 15 min, 5% BSA was added for fixing for 1 h, PBST was used for washing 2 times, a PD-L1 antibody was added overnight incubation, a red fluorescent antibody was added for incubation at room temperature for 1 h, DAPI was added for staining for 10 min, and finally, a laser scanning confocal microscope was used for photographing and analysis. 4. Research of CBD on Enhancing In Vitro Killing of Tumor Cells by T Cells

[3] = test system: PD-L1 on HCT116 colon cancer cell membrane; experiment: PD-L1 on cell membrane by flow cytometry; format: cell-based; settings: concentration-dependent 5, 10, 20 μM, 24 h
Protocol: as §1

[4] = test system: PD-L1 on RKO colon cancer cell membrane; experiment: PD-L1 on cell membrane by flow cytometry; format: cell-based; settings: concentration-dependent 5, 10, 20 μM, 24 h
Protocol: as §1

[5] = test system: PD-L1 on HT29 colon cancer cell membrane; experiment: PD-L1 on cell membrane by flow cytometry; format: cell-based; settings: concentration-dependent 5, 10, 20 μM, 24 h
Protocol: as §1

[6] = test system: PD-L1 on H460 lung cancer cell membrane; experiment: PD-L1 on cell membrane by flow cytometry; format: cell-based; settings: concentration-dependent 5, 10, 20 μM, 24 h
Protocol: as §1

[7] = test system: PD-L1 on H1975 lung cancer cell membrane; experiment: PD-L1 on cell membrane by flow cytometry; format: cell-based; settings: concentration-dependent 5, 10, 20 μM, 24 h
Protocol: as §1

MC38 colon cancer cells = experiment: MC38 subcutaneous tumor model in C57BL/6 mice, Embodiment 5; format: in vivo; settings: for Tumor volume: CBD 100 mg/kg, PAR 5 mg/kg, vitamin E 50 mg/kg
Protocol: MC38 colon cancer cells were inoculated into 6-week-old female C57BL/6 mice (1×10^6 cells/mouse) to establish a subcutaneous tumor model. After the tumor volume reached 50 mm^3, the mice were grouped and administered with the following pharmaceutical combinations: (1) control group (no drug administration), (2) anti-PD-1 ([…] per time) group, (3) vitamin E(α-tocopherol) (50 mg/kg) group, (4) CBD (100 mg/kg) group, (5) CBD (100 mg/kg)+vitamin E(α-tocopherol) (50 mg/kg) group, (6) PAR (5 mg/kg) group, (7) PAR (5 mg/kg)+vitamin E(α-tocopherol) (50 mg/kg) group, (8) CBD (100 mg/kg)+PAR (5 mg/kg) group, and (9) PAR (5 mg/kg)+CBD (100 mg/kg)+vitamin E(α-tocopherol) (50 mg/kg) group.
The tumor weight, tumor volume, and mouse body weight were monitored once every 2 days. The tumor volume was calculated as follows: tumor volume (mm^3)=0.5×(length)×(width)^2. The mice were sacrificed 14 days after drug administration, and the tumors were dissected.
The dissolving mode of the pharmaceutical composition was as follows: the pharmaceutical composition was dissolved in 10% DMSO+corn oil, the mice were gavaged with the pharmaceutical composition at 100 μl/mice, and the mice in the control group were injected with the same volume of the solvent.

[8] = test system: RKO colorectal cancer cells; experiment: EdU proliferation of tumor cells treated with CBD; format: cell-based; settings: CBD 5, 10, 20 μM, 24 h
Protocol: (§2) Different types of tumor cells (RKO colorectal cancer cells, H1975 lung cancer cells, and A549 lung cancer cells) in the logarithmic growth phase were respectively inoculated into a 96-well plate at an inoculum density of 5×10^3 per well, and then, the tumor cells were placed into an incubator at 37° C. and 5% CO2 for incubation for 24 h; a CBD mother solution (10 mM) was respectively diluted with culture medium to 5 μM, 10 μM, or 20 μM, and the culture medium in the 96-well plate was aspirated off, 100 μL of culture medium containing different concentrations of CBD was added to each well, a control well (0 μM CBD) was set, and the cells were continuously incubated for 24 h. After the culture was completed, the quantity of proliferating tumor cells was detected with an EdU kit (Beyotime, C0085S). Finally, a high-content imaging analysis system was used for photographing and the data were counted.

H1975 lung cancer cells = experiment: EdU proliferation of tumor cells treated with CBD; format: cell-based; settings: CBD 5, 10, 20 μM, 24 h
Protocol: as §2

A549 lung cancer cells = experiment: EdU proliferation of tumor cells treated with CBD; format: cell-based; settings: CBD 5, 10, 20 μM, 24 h
Protocol: as §2

C=C(C)[C@@H]1CCC(C)=C[C@H]1c1c(O)cc(CCCCC)cc1O [CBD, cannabidiol]
expression of PD-L1 on cell membranes (immunofluorescence) [1]: time-dependently decreased the expression of PD-L1
viability of RKO cells in CBD+T cells coculture (RKO cells): significantly reduced the viability of RKO cells
expression of PD-L1 on the cell membrane (flow assay) [2]: decreased the expression of PD-L1
expression of PD-L1 on the cell membrane (flow assay) [3]: decreased the expression of PD-L1
expression of PD-L1 on the cell membrane (flow assay) [4]: decreased the expression of PD-L1
expression of PD-L1 on the cell membrane (flow assay) [5]: decreased the expression of PD-L1
expression of PD-L1 on the cell membrane (flow assay) [6]: decreased the expression of PD-L1
expression of PD-L1 on the cell membrane (flow assay) [7]: decreased the expression of PD-L1
Tumor volume (MC38 colon cancer cells; Day 0): 0 mm^3
Tumor volume (MC38 colon cancer cells; Day 4): 63.99 mm^3
Tumor volume (MC38 colon cancer cells; Day 6): 113.24 mm^3
Tumor volume (MC38 colon cancer cells; Day 8): 120.48 mm^3
Tumor volume (MC38 colon cancer cells; Day 10): 176.51 mm^3
Tumor volume (MC38 colon cancer cells; Day 12): 241.75 mm^3
Tumor volume (MC38 colon cancer cells; Day 14): 314.83 mm^3
Tumor volume (MC38 colon cancer cells; Day 16): 359.72 mm^3
therapeutic / tumor inhibition effect in words (MC38 colon cancer cells; normal mice, Embodiment 5, comparison between groups): equivalent therapeutic effects
toxicity to tumor cells (proliferation, EdU fluorescence intensity) [8]: not significantly toxic
toxicity to tumor cells (proliferation, EdU fluorescence intensity) (H1975 lung cancer cells): not significantly toxic
toxicity to tumor cells (proliferation, EdU fluorescence intensity) (A549 lung cancer cells): not significantly toxic
